Data reported in PMC10385850, “Modified Hederagenin Derivatives Demonstrate Ex Vivo Anthelmintic Activity against Fasciola hepatica” (Pharmaceutics, 2023).
Where “and” joins values, the source holds several entries; their conditions need not be identical. Equal entries are not always repeated. Where two headings read alike, the source gives them in different places.

Columns and labels:
[1] = system: immature F. hepatica flukes (Italian strain); test: Ex vivo motility assay on immature liver flukes (Italian strain), single concentration and dose response; type: cell-based, Fasciola hepatica; details: for Average motility of 4 parasites with 95% CI at 24 hour time point: score 1 normal to 5 no movement or death; for Effect on immature fluke motility, in words: by 72 h
Experimental: The six selected compounds (at 40 µM in 0.4% DMSO) were evaluated on immature flukes (n = 4/condition) at 24, 48 and 72 h (Table S4). The protocol for culturing and scoring (motility) of these life stages have been previously described. Due to restricted numbers of immature worms, a dose response assay was conducted only for MC042. Here, immature worms (n = 2/concentration tested) were screened against descending concentrations of MC042 (40 µM, 13.3 µM and 4.4 µM); motility scores were recorded at 24, 48 and 72 h (Table S5). The scoring pattern used is identical to that described for NEJs.

[2] = system: adult F. hepatica flukes (Italian strain); test: Ex vivo dose response motility assay on adult liver flukes (Italian strain); type: cell-based, Fasciola hepatica; details: for Selectivity Index (SI) on Adult Flukes SI=CC50/EC50, 72 hour: CC50 in MDBK cells (24 h) / EC50 adult flukes 72 h; for EC50: Fasciola hepatica, adult flukes, motility; for Effect on adult fluke (Italian strain) movement, in words: dose response, MC042 statement at 40 μM after 72 h
Experimental: The collection, ex vivo culturing and screening of adult liver fluke (Italian strain; n = 3/condition) was previously described. Dose response assays (40 µM, 13.3 µM and 4.4 µM) were conducted for MC014, MC042, MC035, MC055 and MC062 with motility scores recorded at 24, 48 and 72 h (Table S6).

[3] = MTT cell viability assay on MDBK cells; type: cell-based, bovine; details: bovine, MDBK cells (Madin–Darby bovine kidney); MDBK cells, MTT, 24 h exposure; read-out: CC50 with 95% CI on MDBK cells (cytotoxicity)
Experimental: MTT cell viability assays were performed on Madin–Darby bovine kidney (MDBK cells) for the five selected hederagenin derivatives (MC014, MC035, MC042, MC055 and MC062) using final concentrations of 100 μM, 75 μM, 50 μM, 25 μM, 10 μM, 5 μM and 1 μM (in 1% DMSO). Negative (1% v/v Triton X-100, Sigma-Aldrich, UK) and positive (1% v/v DMSO or media only) controls were included. The protocol was followed as previously described. Absolute EC50 values were calculated from the corrected absorbance of replicates by non-linear regression, after log transformation of concentrations and data normalization (where DMSO values represents 0% inhibition and TX-100 values represent 100% inhibition) using GrapPad Prism 8.

[4] = system: F. hepatica newly excysted juveniles (NEJs), Italian strain; test: Ex vivo screen against newly excysted juveniles (NEJs), phenotype and motility scoring; type: cell-based, Fasciola hepatica; details: 10 µM; for Average phenotype of 25 NEJs with 95% CI, 24 hours / Average phenotype of 25 NEJs with 95% CI, 48 hours / Average phenotype of 25 NEJs with 95% CI, 72 hours: ultrastructure score 1 normal to 6 dead or dissolved; for Activity against NEJs (first screen), in words: 72 h co-culture
Summary of the method: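 Newly excysted juveniles of the Italian strain of F. hepatica were obtained by excysting metacercariae and exposed ex vivo to test compounds at 10 μM final concentration in 0.1% DMSO. Controls were 0.1% DMSO (negative) and 10 μM TCBZ in 0.1% DMSO (positive). Motility was scored from 1 (good/normal) to 5 (no movement), and ultrastructural phenotype changes were scored with an established matrix.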

[5] = system: wild strain adult F. hepatica; test: Ex vivo motility assay on adult liver flukes (wild strain); type: cell-based, Fasciola hepatica; details: 40 µM; for Effect on wild strain adult fluke motility, in words: 72 h; for Average motility of 4 parasites with 95% CI at 72 hour time point: wild strain adult flukes, score 1 good/normal to 6 no movement or dead
Experimental: Due to the high number of active molecules and a shortage of Italian strain adult liver flukes, the eleven hit compounds were screened for 72 h at 40 µM (in 0.4% DMSO) on wild strain adult F. hepatica (n = 4/condition) of unknown provenance (Table S3). The protocol for culturing and scoring (motility) the activity of these compounds was previously described (1—good/normal; 2—moderate; 3—resting (less than 10 s pulses of body and head), 4—apathetic (less than 2 s pulses of body and head), 5—paralysis and 6–no movement or dead worms). Six compounds were deemed active in these assays and were selected for further screening.

[6] = 40 µM, 48 h, immature flukes, score 1 to 5
[7] = 40 µM, 72 h, immature flukes, score 1 to 5
[8] = 4.4 µM, 24 h, adult flukes Italian strain, score 1 to 6
[9] = 4.4 µM, adult flukes Italian strain, score 1 to 6
[10] = 24 h, adult flukes Italian strain, score 1 to 6
[11] = adult flukes Italian strain, score 1 to 6
[12] = 72 h, adult flukes Italian strain, score 1 to 6
[13] = 72 h, read-out: EC50 with 95% CI on Adult Flukes (motility), 72 hour

Row | SMILES | Average motility of 4 parasites with 95% CI at 24 hour time point ([1]; 40 µM, 24 h, immature flukes) | Average motility of 4 parasites with 95% CI at 48 hour time point [1, 6] | Average motility of 4 parasites with 95% CI at 72 hour time point [1, 7] | Effect on immature fluke motility, in words ([1]; 40 µM) | Average motility of 3 parasites treated with 4.4 µM, 24 hours [2, 8] | Average motility of 3 parasites treated with 4.4 µM, 48 hours [2, 9] | Average motility of 3 parasites treated with 13.3 µM, 24 hours [2, 10] | Average motility of 3 parasites treated with 13.3 µM, 48 hours [2, 11] | Average motility of 3 parasites treated with 13.3 µM, 72 hours [2, 12] | Average motility of 3 parasites treated with 40 µM, 24 hours [2, 10] | Average motility of 3 parasites treated with 40 µM, 48 hours [2, 11] | Average motility of 3 parasites treated with 40 µM, 72 hours [2, 12] | Selectivity Index (SI) on Adult Flukes SI=CC50/EC50, 72 hour [2] | EC50 [2, 13] [µM] | Effect on adult fluke (Italian strain) movement, in words [2] | CC50 at 24 h [3] [µM] | Average phenotype of 25 NEJs with 95% CI, 24 hours ([4]; 24 h) | Average phenotype of 25 NEJs with 95% CI, 48 hours ([4]; 48 h) | Average phenotype of 25 NEJs with 95% CI, 72 hours ([4]; 72 h) | Activity against NEJs (first screen), in words [4] | further results
1 | CN1CCN(C(=O)N[C@]23CCC(C)(C)CC2C2=CCC4[C@@]5(C)CC[C@@H]6OC(C)(C)OC[C@@]6(C)C5CC[C@@]4(C)[C@]2(C)CC3)CC1 (stereo partly drawn) [MC062, 4-Methyl-N-((4aR,6aR,6bS,8aS,14bR,16aS)-2,2,4a,6a,6b,11,11,14b-octamethyl-4a,5,6,6a, 6b,7,8,9,10,11, 12,12a,14,14a,14b,15,16,16a-octadecahydro-4H-piceno[3,4-d][1,3]dioxin-8a(4bH)-yl)piperazine-1-carboxamide] | 5.00 (5.0;5.0) | 5.00 (5.0;5.0) | 5.00 (5.0;5.0) | paralyzed the assayed immature flukes | 1.00 (1.0; 1.0) | 1.00 (1.0; 1.0) | 1.00 (1.0; 1.0) | 1.66 (1.0; 2.3) | 5.00 (5.0; 5.0) | 3.00 (3.0;3.0) | 4.00 (4.0;4.0) | 5.00 (5.0;5.0) | 2.43 | 5.61 | Decreased movement | 13.7 | 6.00 (6.0;6.0) | 6.00 (6.0;6.0) | 6.00 (6.0;6.0) | maximal alterations to both phenotype/ultrastructure and motility | Effect on wild strain adult fluke motility, in words [5]: partial paralysis; Average motility of 4 parasites with 95% CI at 72 hour time point [5]: 5.00 (5.0;5.0)
2 | CC1(C)CC[C@]2(NC(=O)N3CCOCC3)CC[C@]3(C)C(=CCC4[C@@]5(C)CC[C@@H]6OC(C)(C)OC[C@@]6(C)C5CC[C@]43C)C2C1 (stereo partly drawn) [MC042, N-((4aR,6aR,6bS,8aS,14bR,16aS)-2,2,4a,6a,6b,11,11,14b-Octamethyl-4a,5,6,6a,6b,7,8,9,10,11,12,12a, 14,14a,14b,15,16,16a-octadecahydro-4H-piceno[3,4-d][1,3]dioxin-8a(4bH)-yl)-morpholine-4-carboxamide] | 4.75 (4.2;5.2) | 5.00 (5.0;5.0) | 5.00 (5.0;5.0) | paralyzed the assayed immature flukes | 1.00 (1.0;1.0) | 2.00 (2.0; 2.0) | 3.66 (3.0;4.3) | 4.00(4.0; 4.0) | 4.00 (4.0; 4.0) | 5.33 (4.6;5.9) | 5.66 (5.0;6.3) | 5.66 (5.0,6.3) | 6.64 | 7.15 | two out of three adult flukes were completely immobilized | 47.5 | 6.00 (6.0;6.0) | 6.00 (6.0;6.0) | 6.00 (6.0;6.0) | maximal alterations to both phenotype/ultrastructure and motility | Average motility of 2 parasites treated with 4.4 µM, 24 hours ([1]; 4.4 µM, 24 h, immature flukes, dose response, score 1 to 5): 4.00 (4.0;4.0); Average motility of 2 parasites treated with 4.4 µM, 48 hours ([1]; 4.4 µM, 48 h, immature flukes, dose response, score 1 to 5): 5.00 (5.0; 5.0); Average motility of 2 parasites treated with 4.4 µM, 72 hours ([1]; 4.4 µM, 72 h, immature flukes, dose response, score 1 to 5): 5.00 (5.0; 5.0); Average motility of 2 parasites treated with 13.3 µM, 24 hours ([1]; 13.3 µM, 24 h, immature flukes, dose response, score 1 to 5): 4.00 (4.0;4.0); Average motility of 2 parasites treated with 13.3 µM, 48 hours ([1]; 13.3 µM, 48 h, immature flukes, dose response, score 1 to 5): 5.00 (5.0; 5.0); Average motility of 2 parasites treated with 13.3 µM, 72 hours ([1]; 13.3 µM, 72 h, immature flukes, dose response, score 1 to 5): 5.00 (5.0; 5.0); Average motility of 2 parasites treated with 40 µM, 24 hours ([1]; 40 µM, 24 h, immature flukes, dose response, score 1 to 5): 5.00 (5.0;5.0); Average motility of 2 parasites treated with 40 µM, 48 hours ([1]; 40 µM, 48 h, immature flukes, dose response, score 1 to 5): 5.00 (5.0;5.0); Average motility of 2 parasites treated with 40 µM, 72 hours ([1]; 40 µM, 72 h, immature flukes, dose response, score 1 to 5): 5.00 (5.0,5.0); Selectivity Index (SI) on Immature Flukes SI=CC50/EC50, 24 hour ([1]; CC50 in MDBK cells / EC50 immature flukes, 24 h): 44 and 44.37; EC50 ([1]; Fasciola hepatica, immature flukes, motility, 24 h exposure, read-out: EC50 with 95% CI on Immature Flukes (motility), 24 hour): 1.07 µM; Average motility of 3 parasites treated with 4.4 µM, 72 hours ([2]; 4.4 µM, 72 h, adult flukes Italian strain, score 1 to 6): 3.00 (3.0; 3.0); Effect on adult fluke (Italian strain) movement at lower concentrations, in words ([2]; 13.3 μM and 4.4 μM, after 72 h, compared to DMSO 0.4%): impaired movement; Selectivity Index (SI) on Adult Flukes SI=CC50/EC50, 24 hour ([2]; CC50 in MDBK cells / EC50 adult flukes, 24 h): 4 and 3.64; EC50 ([2]; 24 h exposure, read-out: EC50 with 95% CI on Adult Flukes (motility), 24 hour): 13 µM; Average motility of 25 NEJs with 95% CI, 24 hours ([4]; 24 h, motility score 1 good/normal to 5 no movement): 5.00 (5.0;5.0); Average motility of 25 NEJs with 95% CI, 48 hours ([4]; 48 h, motility score 1 good/normal to 5 no movement): 5.00 (5.0;5.0); Average motility of 25 NEJs with 95% CI, 72 hours ([4]; 72 h, motility score 1 good/normal to 5 no movement): 5.00 (5.0;5.0); Effect on wild strain adult fluke motility, in words [5]: no motility after 72 h; Average motility of 4 parasites with 95% CI at 72 hour time point [5]: 6.00 (6.0;6.0)
